Publication PMC10618445, “Eucalyptus torquata L. flowers: a comprehensive study reporting their metabolites profiling and anti-gouty arthritis potential” (Scientific Reports, 2023)

Assays:
[1] = Ferric reducing power assay (FRAP); settings: mean ± SD, triplicate
Experimental: DPPH radical scavenging, ABTS radical scavenging and FRAP assays were done according to Dudonne et al.[19] method minor modifications. The details are mentioned in the supplementary file. The ferric reducing power of the extract was determined using the method reported previously by Dudonne, et al., 2009 [1]. The reduction is monitored by measuring the change of absorbance at 593 nm. […] A standard curve was prepared using various concentrations of FeSO4 .7H2O. All solutions were used on the day of preparation. A 100 µL of the sample solution and 300 μL of deionized water were added to 3 mL of freshly prepared FRAP reagent. The reaction mixture was incubated in a water bath for 30 min at 37 °C. The difference between sample absorbance and blank absorbance was calculated and used to calculate the FRAP value. All measurements were done in triplicate and the EC50 was calculated. Ascorbic acid is used as standard.

[2] = ABTS radical scavenging assay; settings: mean ± SD, triplicate
Experimental: DPPH radical scavenging, ABTS radical scavenging and FRAP assays were done according to Dudonne et al.[19] method minor modifications. The details are mentioned in the supplementary file. Briefly, 200 µL of the reaction mixture containing 10 µL extract/ standard at different concentrations (0.1575 - 1 mg/mL) was added to 2,2′-Azino-bis(3-ethylbenzothiazoline-6-sulfonic acid (ABTS) solution (190 µL) then measured at 734 nm in 96 well-plates. The ABTS solution was composed as follows; 5 mL of 14 mM ABTS dissolved in methanol added to 5 mL solution of 4.9 mM potassium persulfate, and subsequently stored for 16 h at room temperature in dark. This solution was diluted with methanol till the absorbance was 0.700.

[3] = DPPH radical scavenging assay; settings: mean ± SD, triplicate
Experimental: DPPH radical scavenging, ABTS radical scavenging and FRAP assays were done according to Dudonne et al.[19] method minor modifications. The details are mentioned in the supplementary file. Briefly, 20 μL of the diluted concentrations of ETME/ standard (0.1575 - 1 mg/mL) were added to 200 μL of 2,2-diphenyl-1-picrylhydrazyl (DPPH) in a 96 well-plate and the absorbance was measured at 517 nm after incubation for 30 min [1] using ascorbic acid as standard. […] was determined using the equation; [(Ac – As) / Ac] × 100. In which, Ac was the control absorbance (DPPH solution without the tested sample) while As was the sample absorbance (DPPH solution in addition to the extract or standard).

U937 human monocytes = assay: Histamine release inhibitory activity (PMA-treated cells, ELISA); assay type: cell-based; settings: 20 nM PMA, 1 h, mean ± SD
Experimental: U937 human monocytes (ATCC, Manassas, VA, USA) were used to study the effect of the extract on histamine release. U937 cells (50,000 cells) were plated in a 96-well plate and treated with various concentration (1000–7.81 µg/mL) of the extract, in presence or absence of 20 nM phorbol myristate acetate (PMA) for 1 h. The cell culture supernatants collected from either untreated control or treated cultures were centrifuged at 10,000 g for 5 min at 4 °C and assessed for the released histamine by the commercially available ELISA kit. Diclofenac was used as the positive control.

protease = assay: Protease (proteinase) inhibitory activity; assay type: biochemical; settings: mean ± SD, triplicate
Experimental: (§1) Albumin denaturation inhibition was evaluated using the previously described method. Membrane stabilization and proteinase inhibitory potentials were evaluated using the previously reported method. Diclofenac was used as the reference drug. All the experiments were performed in triplicate.

red blood cell membranes = assay: Membrane stabilization; assay type: cell-based; settings: mean ± SD, triplicate
Experimental: as §1
Denaturation of tissue proteins is well documented in the pathogenesis of inflammatory events like arthritis. The protection against protein denaturation is one of NSAIDs mechanisms of action. In addition, red blood cell hemolysis inhibition may provide insights into the process of inflammation. Stabilization of the red blood cell membranes may delay or prevent the lysis and the consequent cytoplasmic contents release and the inflammatory response. So, plants that can interfere with these responses could be very useful for developing novel anti-arthritic drugs. Natural extracts from other Eucalyptus species produced similar albumin denaturation and cell membrane stabilization activities including E. obliqua leaves, E. sideroxylon bark[9] and E. globulus leaves.

5-lipoxygenase (5-LOX) = assay: 5-lipoxygenase inhibitory assay (lipoxygenase inhibitor screening kit); assay type: biochemical; settings: mean ± SD, triplicate
Excerpt: (§2) Methanol, DPPH (2,2-diphenyl-1-picrylhydrazyl), ABTS (2,2′-Azino-bis (3-ethylbenzothiazoline-6-sulfonic acid)), TPTZ (2,4,6-tri(2-pyridyl)-s-triazine), ascorbic acid, hyaluronic acid (human umbilical cord), sodium hydroxide, hyaluronidase (bovine testes), calcium chloride, p-dimethylaminobenzaldehyde (PDMAB), and sodium borate were purchased from Sigma-Aldrich (USA). COX (ovine) and LOX inhibitor screening assay kits (Cayman Chemical Company, MI, USA), 96-well cell culture plate (Corning Life Sciences, Lowell, MA, USA), PMA (Sigma-Aldrich, St. Luis, MO, USA), and histamine release assay kit (SPI-Bio, France) were used.
The COX inhibitory activity was assayed using Cayman colorimetric COX (ovine) inhibitor screening assay kit, according to the manufacturer’s instructions. The selectivity index (S.I.) was then calculated as IC50 (COX-1)/IC50 (COX-2). In vitro 5-lipoxygenase (5-LOX) inhibitory assay was carried out using lipoxygenase inhibitor screening assay kit, according to the manufacturer’s instructions. Diclofenac sodium was used as a reference drug.

tyrosinase = assay: Tyrosinase inhibition assay with L-DOPA as substrate; assay type: biochemical; settings: mean ± SD
Experimental: Tyrosinase inhibition assay was performed with L-DOPA as substrate adopting the previously described method. Detailed procedures are described in the supplementary file.
Tyrosinase inhibition assay was performed with L-DOPA as substrate adopting the method reported in [3]. In a 96-plate, 685 μL of phosphate buffer (0.05 M, pH 6.5), 15 μL of tyrosinase enzyme (2500 U /mL), 200 μL of ETME (7.81–1000 µg/mL) and 100 μL of 5 mM/L L-DOPA were added. The absorbance was immediately monitored at 492 nm. Kojic acid was used as the positive control. The assay was made in triplicate. The percentage inhibition was calculated as follows: % of inhibition = (Acontrol/Atested sample)/ Acontrol) x 100. Where, Acontrol is the absorbance without the addition of the inhibitor and Asample is the absorbance after adding the standard.

xanthine oxidase (XO) = xanthine oxidase (XO) (Bos taurus, UniProt P80457); assay: Xanthine oxidase (XO) inhibitory activity; assay type: biochemical; settings: mean ± SD, triplicate; read-out: Xanthine oxidase IC50/EC50 (converted)
xanthine oxidase (XO), sequence (P80457 whole entry): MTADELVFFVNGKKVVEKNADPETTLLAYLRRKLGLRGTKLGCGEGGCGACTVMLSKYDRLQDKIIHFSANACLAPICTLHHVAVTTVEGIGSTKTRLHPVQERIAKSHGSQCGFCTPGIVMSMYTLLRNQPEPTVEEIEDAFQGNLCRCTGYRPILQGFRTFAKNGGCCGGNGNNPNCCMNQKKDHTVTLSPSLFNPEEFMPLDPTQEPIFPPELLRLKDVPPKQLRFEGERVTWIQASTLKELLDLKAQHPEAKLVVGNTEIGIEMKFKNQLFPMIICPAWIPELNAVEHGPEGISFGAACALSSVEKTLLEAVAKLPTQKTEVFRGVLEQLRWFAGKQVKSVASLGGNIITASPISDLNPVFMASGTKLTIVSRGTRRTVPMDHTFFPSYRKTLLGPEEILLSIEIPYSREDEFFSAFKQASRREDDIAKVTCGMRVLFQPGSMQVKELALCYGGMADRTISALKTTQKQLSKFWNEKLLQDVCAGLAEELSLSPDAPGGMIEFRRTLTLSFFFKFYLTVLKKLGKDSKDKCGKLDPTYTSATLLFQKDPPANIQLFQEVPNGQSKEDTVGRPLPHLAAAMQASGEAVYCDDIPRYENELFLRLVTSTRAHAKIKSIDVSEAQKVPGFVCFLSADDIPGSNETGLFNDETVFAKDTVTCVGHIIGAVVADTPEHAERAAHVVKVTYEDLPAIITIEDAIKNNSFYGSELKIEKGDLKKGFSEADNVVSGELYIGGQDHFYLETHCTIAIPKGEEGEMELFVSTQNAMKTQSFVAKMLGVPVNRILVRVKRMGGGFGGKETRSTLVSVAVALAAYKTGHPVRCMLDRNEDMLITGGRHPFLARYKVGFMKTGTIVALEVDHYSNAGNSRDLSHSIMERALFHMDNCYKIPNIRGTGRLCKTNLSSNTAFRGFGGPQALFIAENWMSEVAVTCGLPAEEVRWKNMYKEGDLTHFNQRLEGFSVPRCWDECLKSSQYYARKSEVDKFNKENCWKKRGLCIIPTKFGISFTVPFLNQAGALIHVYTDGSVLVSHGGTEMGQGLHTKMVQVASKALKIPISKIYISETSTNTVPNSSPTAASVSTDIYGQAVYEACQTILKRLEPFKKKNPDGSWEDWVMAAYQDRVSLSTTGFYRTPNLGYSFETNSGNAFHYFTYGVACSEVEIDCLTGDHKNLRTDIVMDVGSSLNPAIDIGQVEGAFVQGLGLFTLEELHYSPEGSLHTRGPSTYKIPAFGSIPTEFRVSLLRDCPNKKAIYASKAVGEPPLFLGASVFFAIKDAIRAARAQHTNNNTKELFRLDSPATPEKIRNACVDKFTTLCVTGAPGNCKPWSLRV
Experimental: The XO inhibitory activity was assayed following the protocol reported in[22]. Detailed procedures are described in the supplementary file. The XO inhibitory activity was assayed following the protocol reported in [2]. Five hundred µL of different concentrations of ETME/ standard (10- 100 µg/mL) were added to the enzyme solution (1.3 mL of phosphate buffer at concentration of 65 mM and pH 7.4 containing 0.28 U/mL of XO). Then the mixture was incubated for 10 min at 30 ℃. Next, 1.4 mL of the substrate xanthine (0.6 mM) was added to the mixture. The absorbance was measured at every minute for 10 min at 295 nm. Allopurinol was used as the standard drug. The percentage inhibition of XO was calculated as: % inhibition = (1 – Absorbance of sample/ Absorbance of blank) x 100. The IC50 value was calculated from the calibration curve.

[4] = tested on: hyaluronidase (bovine testes); assay: Hyaluronidase inhibitory activity; assay type: biochemical; settings: mean ± SD, triplicate
Excerpt: as §2
Hyaluronidase inhibitory activity of ETME was evaluated spectrophotometrically as reported by Perera et al.[24] with minor modifications. Detailed procedures are described in the supplementary file.
Hyaluronidase inhibitory activity of ETME was evaluated spectrophotometrically as reported by Perera et al., 2018 with minor modifications. […]. The percentage of enzyme inhibition was calculated as follows:
% of inhibition = (Acontrol/Atested sample)/ Acontrol) x 100.
Where Acontrol is the absorbance without addition of the inhibitor and Asample is the absorbance after adding the extract/standard. The IC50 value, the concentration giving 50% inhibition of hyaluronidase activity, was determined by interpolation using the concentration-response curves. […]

**Q.** With `O=C1O[C@H]([C@@H](O)CO)C(O)=C1O` [Ascorbic acid, ascorbic acid] as the molecule, how does the “FRAP IC50/EC50” value [1] read?
**A.** 3.9 ± 1.9 µg/mL

**Q.** And the “ABTS IC50/EC50” value [2]?
**A.** 21.4 ± 1.6 µg/mL

**Q.** And the “DPPH IC50/EC50” value [3]?
**A.** 2.2 ± 1.6 µg/mL

**Q.** With `O=C(O)Cc1ccccc1Nc1c(Cl)cccc1Cl` [Diclofenac] as the molecule, how does the “Histamine release IC50/EC50” value (U937 human monocytes) read?
**A.** 17.94 ± 1.4 µg/mL

**Q.** What about the “Protease IC50/EC50” value (protease) of the same molecule?
**A.** 25.14 ± 1.2 µg/mL

**Q.** What about the “Membrane stabilization IC50/EC50” value (red blood cell membranes) of the same molecule?
**A.** 17.02 ± 1.3 µg/mL

**Q.** For `COc1ccc2c(c1)c(CC(=O)O)c(C)n2C(=O)c1ccc(Cl)cc1` [Indomethacin], which “LOX IC50/EC50” value (5-lipoxygenase (5-LOX)) is on record?
**A.** 23.4 ± 0.83 µg/mL

**Q.** With `O=c1cc(CO)occ1O` [Kojic acid] as the molecule, how does the “Tyrosinase IC50/EC50” value (tyrosinase) read?
**A.** 52.0 ± 0.98 µg/mL

**Q.** For `O=c1[nH]c(=O)c2c[nH]nc2[nH]1` [Oxypurinol], which IC50 (xanthine oxidase (XO)) is on record?
**A.** 96.6 µM

**Q.** Which “Hyaluronidase IC50/EC50” value [4] does the source give for `O=C([O-])CC([S-])C(=O)[O-].[Au+].[Na+].[Na+]` (stereo not shown) [Sodium aurothiomalate] here?
**A.** 20.03 ± 0.96 µg/mL
